Test results as given in PubChem BioAssay (NCI).
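Results reflect a 48-hour exposure of cells in 96-well plates to compound at five concentrations. TGI marks complete inhibition of growth.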

Experiments:
Assay in all cases: growth of human tumour cells (NCI), 48 h
786-0 renal = tested on: 786-0 renal
A498 renal = tested on: A498 renal
A549 NSCLC = tested on: A549 NSCLC
ACHN renal = tested on: ACHN renal
BT-549 breast = tested on: BT-549 breast
CAKI-1 renal = tested on: CAKI-1 renal
CCRF-CEM leukemia = tested on: CCRF-CEM leukemia
COLO 205 colon = tested on: COLO 205 colon
DLD-1 colon = tested on: DLD-1 colon
DMS 114 small cell lung = tested on: DMS 114 small cell lung
DMS 273 small cell lung = tested on: DMS 273 small cell lung
DU-145 prostate = tested on: DU-145 prostate
EKVX NSCLC = tested on: EKVX NSCLC
HCC-2998 colon = tested on: HCC-2998 colon
HCT-116 colon = tested on: HCT-116 colon
HCT-15 colon = tested on: HCT-15 colon
HL-60(TB) leukemia = tested on: HL-60(TB) leukemia
HOP-18 NSCLC = tested on: HOP-18 NSCLC
HOP-62 NSCLC = tested on: HOP-62 NSCLC
HOP-92 NSCLC = tested on: HOP-92 NSCLC
HS 578T breast = tested on: HS 578T breast
HT29 colon = tested on: HT29 colon
IGROV1 ovarian = tested on: IGROV1 ovarian
K-562 leukemia = tested on: K-562 leukemia
KM12 colon = tested on: KM12 colon
KM20L2 colon = tested on: KM20L2 colon
LOX IMVI melanoma = tested on: LOX IMVI melanoma
LXFL 529 NSCLC = tested on: LXFL 529 NSCLC
M14 melanoma = tested on: M14 melanoma
M19-MEL melanoma = tested on: M19-MEL melanoma
MALME-3M melanoma = tested on: MALME-3M melanoma
MCF7 breast = tested on: MCF7 breast
MDA-MB-435 = tested on: MDA-MB-435
MDA-N = tested on: MDA-N
MOLT-4 leukemia = tested on: MOLT-4 leukemia
NCI-H226 lung = tested on: NCI-H226 lung
NCI-H23 lung = tested on: NCI-H23 lung
NCI-H460 lung = tested on: NCI-H460 lung
NCI-H522 lung = tested on: NCI-H522 lung
NCI/ADR-RES ovarian = tested on: NCI/ADR-RES ovarian
OVCAR-3 ovarian = tested on: OVCAR-3 ovarian
OVCAR-4 ovarian = tested on: OVCAR-4 ovarian
OVCAR-5 ovarian = tested on: OVCAR-5 ovarian
OVCAR-8 ovarian = tested on: OVCAR-8 ovarian
PC-3 prostate = tested on: PC-3 prostate
RPMI-8226 leukemia = tested on: RPMI-8226 leukemia
RXF 393 renal = tested on: RXF 393 renal
SF-268 CNS = tested on: SF-268 CNS
SF-295 CNS = tested on: SF-295 CNS
SF-539 CNS = tested on: SF-539 CNS
SK-MEL-2 melanoma = tested on: SK-MEL-2 melanoma
SK-MEL-28 melanoma = tested on: SK-MEL-28 melanoma
SK-MEL-5 melanoma = tested on: SK-MEL-5 melanoma
SK-OV-3 ovarian = tested on: SK-OV-3 ovarian
SN12C renal = tested on: SN12C renal
SNB-19 CNS = tested on: SNB-19 CNS
SNB-75 CNS = tested on: SNB-75 CNS
SNB-78 CNS = tested on: SNB-78 CNS
SR leukemia = tested on: SR leukemia
SW-620 colon = tested on: SW-620 colon
T-47D breast = tested on: T-47D breast
TK-10 renal = tested on: TK-10 renal
U251 CNS = tested on: U251 CNS
UACC-257 melanoma = tested on: UACC-257 melanoma
UACC-62 melanoma = tested on: UACC-62 melanoma
UO-31 renal = tested on: UO-31 renal
XF 498 CNS = tested on: XF 498 CNS
RXF-631 renal = tested on: RXF-631 renal

`COC(=O)c1ccc(NCc2cc(O)ccc2O)cc1` showed a TGI (786-0 renal) of 22.3 µM, a TGI (A498 renal) of 29.7 µM and a TGI (A549 NSCLC) of 39.2 µM. It also gave a TGI (ACHN renal) of 24 µM, a TGI (BT-549 breast) of 2.63 µM and a TGI (CAKI-1 renal) of 37.4 µM. The TGI (CCRF-CEM leukemia) was 10.8 µM, the TGI (COLO 205 colon) was 29 µM and the TGI (DLD-1 colon) was 40.8 µM. The TGI (DMS 114 small cell lung) was 8.04 µM, the TGI (DMS 273 small cell lung) was over 54.8 µM and the TGI (DU-145 prostate) was 24.8 µM. The TGI (EKVX NSCLC) was 37.1 µM, the TGI (HCC-2998 colon) was 29.5 µM and the TGI (HCT-116 colon) was 35.7 µM. The TGI (HCT-15 colon) was 19.5 µM, the TGI (HL-60(TB) leukemia) was 8.58 µM and the TGI (HOP-18 NSCLC) was 27.4 µM. The TGI (HOP-62 NSCLC) was 30.9 µM, the TGI (HOP-92 NSCLC) was 29.1 µM and the TGI (HS 578T breast) was 18.5 µM. The TGI (HT29 colon) was 50.7 µM, the TGI (IGROV1 ovarian) was 24.5 µM and the TGI (K-562 leukemia) was 15.1 µM. The TGI (KM12 colon) was 29.6 µM, the TGI (KM20L2 colon) was over 72.7 µM and the TGI (LOX IMVI melanoma) was 26.1 µM. It also gave a TGI (LXFL 529 NSCLC) of 17.9 µM, a TGI (M14 melanoma) of 39.5 µM and a TGI (M19-MEL melanoma) of 33.7 µM. For the same compound, the TGI (MALME-3M melanoma) was 15.7 µM, the TGI (MCF7 breast) was 27.3 µM and the TGI (MDA-MB-435) was 17.3 µM. It also gave a TGI (MDA-N) of 19 µM, a TGI (MOLT-4 leukemia) of 31.5 µM and a TGI (NCI-H226 lung) of 24.9 µM. For the same compound, the TGI (NCI-H23 lung) was 32.9 µM, the TGI (NCI-H460 lung) was 52.2 µM and the TGI (NCI-H522 lung) was 2.06 µM. For the same compound, the TGI (NCI/ADR-RES ovarian) was 36.9 µM, the TGI (OVCAR-3 ovarian) was 27.6 µM and the TGI (OVCAR-4 ovarian) was 30.5 µM. The TGI (OVCAR-5 ovarian) was 29.1 µM, the TGI (OVCAR-8 ovarian) was 40.1 µM and the TGI (PC-3 prostate) was 19.7 µM. It also gave a TGI (RPMI-8226 leukemia) of 34.7 µM, a TGI (RXF 393 renal) of 20.2 µM and a TGI (SF-268 CNS) of 31.5 µM. For the same compound, the TGI (SF-295 CNS) was 35 µM, the TGI (SF-539 CNS) was 13.5 µM and the TGI (SK-MEL-2 melanoma) was 36.1 µM. For the same compound, the TGI (SK-MEL-28 melanoma) was 34.8 µM, the TGI (SK-MEL-5 melanoma) was 23.7 µM and the TGI (SK-OV-3 ovarian) was 48.8 µM. It also gave a TGI (SN12C renal) of 41.2 µM, a TGI (SNB-19 CNS) of 70.5 µM and a TGI (SNB-75 CNS) of 38.9 µM. It also gave a TGI (SNB-78 CNS) of 52.1 µM, a TGI (SR leukemia) of over 32.4 µM and a TGI (SW-620 colon) of 23.4 µM. It also gave a TGI (T-47D breast) of 3.4 µM, a TGI (TK-10 renal) of 31.6 µM and a TGI (U251 CNS) of 24.5 µM. For the same compound, the TGI (UACC-257 melanoma) was 29.2 µM, the TGI (UACC-62 melanoma) was 27 µM and the TGI (UO-31 renal) was 26.3 µM. For the same compound, the TGI (XF 498 CNS) was 9.63 µM.

With `Cc1cccc(C(C)(C)C)c1NC(=O)CC1Sc2ccccc2NC1=O` (centres undefined) the TGI (786-0 renal) was over 100 µM, the TGI (A498 renal) was over 100 µM and the TGI (A549 NSCLC) was over 100 µM. For the same compound, the TGI (ACHN renal) was over 100 µM, the TGI (CAKI-1 renal) was over 100 µM and the TGI (CCRF-CEM leukemia) was over 100 µM. It also gave a TGI (COLO 205 colon) of 59.7 µM, a TGI (DLD-1 colon) of over 100 µM and a TGI (DMS 114 small cell lung) of 83 µM. For the same compound, the TGI (DMS 273 small cell lung) was over 100 µM, the TGI (EKVX NSCLC) was over 100 µM and the TGI (HCC-2998 colon) was over 100 µM. It also gave a TGI (HCT-116 colon) of 45.1 µM, a TGI (HL-60(TB) leukemia) of 89.9 µM and a TGI (HOP-18 NSCLC) of over 100 µM. It also gave a TGI (HOP-62 NSCLC) of over 100 µM, a TGI (HOP-92 NSCLC) of 80 µM and a TGI (HT29 colon) of over 100 µM. For the same compound, the TGI (IGROV1 ovarian) was over 100 µM, the TGI (K-562 leukemia) was 73.5 µM and the TGI (KM12 colon) was over 100 µM. The TGI (KM20L2 colon) was over 100 µM, the TGI (LXFL 529 NSCLC) was over 100 µM and the TGI (M14 melanoma) was over 100 µM. For the same compound, the TGI (M19-MEL melanoma) was over 100 µM, the TGI (MALME-3M melanoma) was over 100 µM and the TGI (MOLT-4 leukemia) was over 100 µM. It also gave a TGI (NCI-H226 lung) of over 100 µM, a TGI (NCI-H23 lung) of over 100 µM and a TGI (NCI-H460 lung) of over 100 µM. It also gave a TGI (NCI-H522 lung) of over 100 µM, a TGI (OVCAR-3 ovarian) of over 100 µM and a TGI (OVCAR-4 ovarian) of over 100 µM. For the same compound, the TGI (OVCAR-5 ovarian) was over 100 µM, the TGI (OVCAR-8 ovarian) was over 100 µM and the TGI (RPMI-8226 leukemia) was 46 µM. The TGI (RXF-631 renal) was over 100 µM, the TGI (SF-268 CNS) was over 100 µM and the TGI (SF-295 CNS) was over 100 µM. For the same compound, the TGI (SF-539 CNS) was over 100 µM, the TGI (SK-MEL-28 melanoma) was over 100 µM and the TGI (SK-MEL-5 melanoma) was over 100 µM. The TGI (SK-OV-3 ovarian) was over 100 µM, the TGI (SN12C renal) was over 100 µM and the TGI (SNB-19 CNS) was over 100 µM. It also gave a TGI (SNB-75 CNS) of over 100 µM, a TGI (SW-620 colon) of 32.6 µM and a TGI (TK-10 renal) of over 100 µM. The TGI (U251 CNS) was over 100 µM, the TGI (UACC-257 melanoma) was over 100 µM and the TGI (UACC-62 melanoma) was over 100 µM. For the same compound, the TGI (UO-31 renal) was over 100 µM.
